This passage reports EC50, IC50 and outcome results from PubChem BioAssay AID179 (DTP/NCI, 2004).

Several values for one entry are separate records, joined by “and”; a condition that tells them apart may be missing. Equal values may be shown once. Activity calls are given as the source filed them.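 How the source made its calls: active means compounds giving half or more protection of infected cells from virus-caused growth loss, again on retest; inactive means the rest.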

The experiment relates to CEM cells HIV-1 protection, formazan growth assay. In words: NCI AIDS Antiviral Assay. To be noted: for IC50: measured here: growth of uninfected CEM cells. The method, boiled down:
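Category rules: moderately active means at least 50% protection on retest, and confirmed active means 100% protection reproducibly. The underlying data came from a formazan growth assay in HIV-1-infected CEM cells.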

For the compound `COC(=O)CN1Cc2cc(C)cc(c2O)CN(CC(=O)OC)Cc2cc(C)cc(c2O)CN(CC(=O)OC)Cc2cc(C)cc(c2O)C1`, the EC50 is above 200 µM and the IC50 stood at 19.5 µM.

In the case of `CC(C)CCCC(C)[C@H]1CC[C@H]2[C@@H]3CC[C@H]4C[C@@H](CCC=C(c5cc(Cl)c(OCc6ccc(CC(=O)O)cc6)c(C(=O)O)c5)c5cc(Cl)c(OCc6ccc(CC(=O)O)cc6)c(C(=O)O)c5)CC[C@]4(C)[C@H]3CC[C@]12C` (some centres undefined), the EC50 is 1.7 µM and 1.41 µM; the IC50 is 115 µM and 20 µM.

With `O=C(O/C=C\OC1CCCC1(c1ccccc1)c1ccccc1)c1ccccc1` (centres undefined), the EC50 was above 200 µM and the IC50 came to 3.8 µM.

In the case of `CCOC(=O)/C(C#N)=C1/Sc2c(ncn(/N=C/c3ccc(OC)cc3)c2=O)N1c1ccccc1`, the EC50 is above 7.94 µM and the IC50 was above 7.94 µM.

With `Cc1ccc(C2C(Cl)C(=O)N2NC(=O)c2ccc(N)cc2)cc1` (centres undefined), the EC50 is above 200 µM and the IC50 is 13.5 µM.

Consider `Cc1cc(NS(=O)(=O)c2ccc(NC(=O)c3cccc4c(Nc5ccc(S(=O)(=O)N=C(N)N)cc5)c5ccccc5nc34)cc2)no1`, for which the EC50 is 52.5 µM and the IC50 came to 53.7 µM.

Regarding `O=C(O)c1c2c(cc3c(=O)cc(-c4ccccc4)oc13)CCCC2`, the result was inactive.

Consider `COC(=O)C1C(O)C(C)C(O)C(C)C=C(C)C2=C3C(=C(C)C(=O)c4c(O)c(c(C)c(OC(C)=O)c43)NC(=O)C(C)=C/C=C\C(C)C(O)C(C)C1O)OCO2` (centres undefined), for which the EC50 was above 77.6 µM.

In the case of `CC(=O)Nc1nc(NC(C)=O)c(N=O)c(NC(C)=O)n1`, the EC50 is above 200 µM and the IC50 came to 115 µM.

Turning to `CCCCCCCSCC(O)COC(c1ccccc1)(c1ccccc1)c1ccccc1` (centres undefined), the EC50 is above 200 µM and the IC50 amounted to 30.2 µM.

On to `O=c1[nH]nc(Cc2ccc(Cl)cc2)n1O`, for which the EC50 was above 200 µM and the IC50 was above 200 µM.

For the compound `N#C/C(C(=O)Nc1ccc(Cl)cc1)=C(/N)N1CCCCC1`, the EC50 was above 200 µM and the IC50 was above 200 µM.

In the case of `CN(C)c1ccc(C=NC23CC4CC(CC(C4)C2)C3)cc1`, the EC50 was above 63.1 µM and the half-inhibitory concentration (IC50) was above 63.1 µM.

On to `COc1ccc2nc3ccc(OC)cc3c(SCC3CO3)c2c1` (centres undefined), for which the EC50 was above 200 µM and the IC50 was determined as 3.63 µM.

Turning to `COc1cc2c(c(OC)c1OC)-c1ccc(OC)c(=O)cc1[C@@H](NC(=O)c1ccccc1)CC2`, the EC50 is above 0.2 µM and the IC50 is 0.00339 µM.

As to `CCN(CC)CCC(=O)N1CCc2c([nH]c3ccccc23)C1c1cccnc1` (centres undefined), the EC50 is above 95.5 µM and the IC50 is above 95.5 µM.

Consider `C=C(C)[C@@H]1CC[C@@H](C)C[C@H]1OC(C)=O`, for which the EC50 is above 200 µM and the IC50 is above 200 µM.

Turning to `COc1ccc(NC(=O)CC/C(CC(=O)c2ccco2)=N/NC(=O)C(N)=O)cc1`, the EC50 is above 25.1 µM and the half-inhibitory concentration (IC50) was above 25.1 µM.

For `O=C(Oc1ccccc1)c1cccc(C(=O)Oc2ccccc2)c1`, the EC50 is above 16.2 µM and the IC50 was above 16.2 µM.

For `CCOC(=O)c1ccc(C(=O)/C(C(C)=O)=C2\CCCN2C)n1C`, the EC50 is 89.1 µM and the IC50 is 174 µM.

Turning to `CNC(=O)c1n[nH]n(Cc2ccccc2)c1=S`, the EC50 is above 200 µM and the half-maximal inhibitory concentration (IC50) was above 200 µM.

`OC[C@H]1C[C@@H]2Cc3ccccc3N2N1`: the EC50 was above 200 µM and the IC50 is above 200 µM.

Turning to `CCC(CCCN)Nc1cc(OC)cc2c(C)ccnc12` (centres undefined), the EC50 is above 200 µM and the IC50 came out at 7.41 µM.

`O=S(=O)(O)c1cc(N=Nc2ccc(O)c3ncccc23)ccc1CCc1ccc(N=Nc2ccc(O)c3ncccc23)cc1S(=O)(=O)O`: the concentration giving a half-maximal response (EC50) was 6.31 µM and the IC50 was determined as 42.7 µM.

As for `COc1cc(C(c2ccc3c(c2)OCO3)N2C(=O)CCC2C(=O)O)cc(OC)c1OC` (centres undefined), the EC50 was above 200 µM and the IC50 is above 200 µM.

`CNC(=O)N(C(C)(C)C)S(=O)(=O)c1ccc(Cl)cc1`: the result was inactive.

On to `N=C(N)c1ccc(N=Nc2cc(N=Nc3ccc(C(=N)N)cc3)c(O)cc2O)cc1`, for which the 50% effective concentration (EC50) was 85.1 µM and the IC50 is above 100 µM.

`CC1NC(=O)c2c(-c3ccccc3)nn(-c3ccccc3)c2NC1=O` (centres undefined): the EC50 is above 200 µM and the IC50 was above 200 µM.

Regarding `CC(=O)OCC1OC(n2ccc(=O)[nH]c2=O)C(OC(C)=O)C(OC(C)=O)C1OC(C)=O` (centres undefined), the EC50 is above 562 µM and the IC50 was above 562 µM.

Turning to `CC(NS(=O)(=O)c1ccccc1)C(=O)O` (centres undefined), the result was inactive.

`CC1=C(/C(C)=C\C(=O)O)CC2C(C)C(=O)CO[C@H]2C1` (some centres undefined): the outcome was inactive.

On to `Cc1cc(-c2ccccc2)c2ccc3c(-c4ccccc4)cc(C)nc3c2n1.Cc1cc(-c2ccccc2)c2ccc3c(-c4ccccc4)cc(C)nc3c2n1.O=C1OC(C(O)C[O-])C(O)=C1O.[Cu+]`, for which the EC50 is above 25.1 µM and the half-inhibitory concentration (IC50) was 0.708 µM.

With `C1CCC(OCC2(COC3CCCCO3)CCCCO2)OC1` (centres undefined), the EC50 is above 200 µM and the IC50 was above 200 µM.

`Cn1cnc([N+](=O)[O-])c1Sc1nnc(-c2cccnc2)n1C`: the EC50 is above 794 µM and the IC50 came to 6.61 µM.

As for `CCNc1cc2c3c(c1)CCN3CCC2`, the EC50 was above 60.3 µM and the IC50 is 10.2 µM.

`CC1CCP(=O)(c2ccccc2)C1` (centres undefined): the EC50 was above 1290 µM and the IC50 was above 1290 µM.

As for `O=c1ccc2cc([N+](=O)[O-])ccc2o1`, the EC50 was above 646 µM and the IC50 was 363 µM.

`O=C(O)c1ccccc1-c1c2ccc(=O)c(Br)c-2oc2c(Br)c(O)ccc12` had an EC50 above 200 µM and an IC50 of 37.2 µM.

On to `CCc1n[nH]c(=O)n1-n1c(C)ccc1C`, for which the EC50 was above 200 µM and the IC50 was above 200 µM.

For the compound `CC(C)=C1C(=O)C[C@@]2(C)C[C@H]3OC3(C)CC/C=C(/C)CCC12` (some centres undefined), the outcome was inactive.

On to `O=c1cccc2n1C[C@H]1C[C@@H]2CN2CCCC[C@H]12`, for which the EC50 was above 200 µM and the IC50 was above 200 µM.

As for `[Ni+2].[O-]/C(=N\N=C/c1cccc(F)c1)c1ccncc1.[O-]/C(=N\N=C\c1cccc(F)c1)c1ccncc1`, the EC50 is above 100 µM and the IC50 is 38 µM.

As to `CC(=O)NC(C)c1ccc(N=NN2CCCC2)cc1` (centres undefined), the EC50 was above 200 µM and the IC50 was found to be 79.4 µM.

Regarding `CCCCC=C(c1cc(Cl)c(OC)c(C(=O)OC)c1)c1cc(Cl)c(OC)c(C(=O)OC)c1`, the EC50 is above 5.62 µM and the IC50 was above 5.62 µM.

For `N#Cc1c(-c2ccc([N+](=O)[O-])cc2)c(=O)oc2cc(O)ccc12`, the EC50 is above 100 µM and the IC50 is 74.1 µM.

`CCN1C(=O)C(=O)C(CC)(CC)C1=O`: the EC50 is above 200 µM and the IC50 was above 200 µM.

In the case of `COc1cc(C2c3cc4c(cc3OC(NNc3ccccc3)C2C)OCO4)cc(OC)c1O` (centres undefined), the outcome was inactive.

As to `CCOC(=O)C(N=O)C(=O)c1ccccc1` (centres undefined), the outcome was inactive.

With `Oc1[nH]c2ccccc2c1N=Nc1nc(-c2ccc(Cl)c(Cl)c2)cs1`, the EC50 is above 200 µM and the IC50 is 40.7 µM.

As to `N#CC1(C#N)OC12CCS(=O)(=O)c1ccccc12` (centres undefined), the EC50 is above 501 µM and the IC50 was 89.1 µM.

As for `CCCCCCCCCCCCCCCCCC(=O)O[C@H](COC(=O)CCCCCCCCCCC)COC(=O)CCCCCCCCCCCCCCC`, the EC50 is above 100 µM and the IC50 is above 100 µM.

`COc1ccc(Sc2ccccc2[N+](=O)[O-])cc1`: the result was inactive.

`COc1ccc(/C(=N/Nc2ccccc2)C(c2ccc(OC)cc2)C2OC(=O)c3ccccc32)cc1` (centres undefined): the EC50 is above 28.2 µM and the IC50 was above 28.2 µM.

Take `CC1(c2nc3ccccc3[nH]2)CCC(C(=O)O)C(C)(C)O1` (centres undefined): the EC50 was above 200 µM and the IC50 stood at 151 µM.

With `CCc1cccc(CC)c1NC(=S)NC(=O)c1ccc(Br)cc1`, the EC50 was above 18.2 µM and the IC50 was above 18.2 µM.

Turning to `Nc1ccc2nc(Nc3ccc(Cl)c(Cl)c3)cnc2c1`, the EC50 was above 23.4 µM and the IC50 was above 23.4 µM.

As for `N#CC(c1ccc(Cl)cc1)c1cccc(C(C#N)c2ccc(Cl)cc2)n1` (centres undefined), the EC50 was above 661 µM and the IC50 was above 661 µM.

In the case of `Cc1cc(N(CCC#N)CCC#N)ccc1C=Nc1ccc(C(=O)NN2C(=O)/C(=C/c3ccc(N(CCC#N)CCC#N)cc3)N=C2c2cc([N+](=O)[O-])ccc2Cl)cc1`, the EC50 is above 44.7 µM and the IC50 was above 44.7 µM.

For `CC1(C)Oc2ccc3c(=O)cc(-c4cccs4)oc3c2C1C(=O)O` (centres undefined), the EC50 was above 200 µM and the half-inhibitory concentration (IC50) was above 200 µM.

With `C=C(C)COC1CCCCO1` (centres undefined), the EC50 was above 200 µM and the IC50 came to 38 µM.

On to `CCOC(=O)C1(Cc2ccccc2)SCCCS1`, for which the EC50 was above 91.2 µM and the IC50 was above 91.2 µM.

With `N#C/C(=C\c1c(Cl)cccc1Cl)c1ccc([N+](=O)[O-])cc1`, the EC50 was above 200 µM and the IC50 is above 200 µM.

As for `COc1cc2c(cc1OC)C13CC[N+]4(C)CC5=CCOC6CC(=O)N2C1C6C5CC34[O-]` (centres undefined), the result was inactive.

Regarding `CN(C)c1ccc(-c2nnc3c(c(=O)n(C)c(=O)n3C)[n+]2[O-])cc1`, the EC50 was above 200 µM and the IC50 came out at 19.1 µM.

Take `Nc1ccccc1-c1nc2c(ccc3ccccc32)[nH]1`: the EC50 was above 72.4 µM and the IC50 stood at 57.5 µM.

Take `O=c1[nH]c2cc([N+](=O)[O-])ccc2nc1/C(=N/Nc1ccccc1)C(O)c1ccc(Cl)cc1Cl` (centres undefined): the EC50 was above 269 µM and the IC50 was 148 µM.

Take `CC(=O)OCC1OC(NC(=S)Nn2c(=O)[nH]c3ccccc3c2=O)C(OC(C)=O)C(OC(C)=O)C1OC(C)=O` (centres undefined): the EC50 is above 200 µM and the concentration for half-maximal inhibition (IC50) was above 200 µM.

Consider `COc1ccc(CCn2ccc(C)n2)c(OC)c1`, for which the EC50 was above 200 µM and the IC50 is above 200 µM.

For the compound `c1ccc(SC2CCCCO2)cc1` (centres undefined), the outcome was inactive.

Consider `Cc1c(O)c(OC2OC(CO)C(O)C(O)C2O)cc2c1C=C[C@@H]1[C@@]2(C)C(=O)C[C@]2(C)[C@@H]([C@@](C)(O)C(=O)CCC(C)(C)O)[C@H](O)C[C@@]12C` (some centres undefined), for which the EC50 is above 200 µM and the IC50 worked out at 93.3 µM.

For orientation: EC50 means the concentration needed to bring the measured effect to its halfway point. By IC50 is commonly meant the concentration that inhibits the measured activity by half. Low values mean greater potency, high ones weaker potency.
